{
  "source": "patent US20040265836A1",
  "about": "“Methods for the identification of inhibitors of C4 Long Chain Base Hydroxylase activity in plants” (priority 2003, published 2004)",
  "key": {"[1]": {"system": "yeast strain PGY8 (wild type)", "assay": "Syringomycin E sensitivity growth assay, wild type yeast strain PGY8", "type": "cell-based, Saccharomyces cerevisiae", "conditions": "PGY8 in rich medium; 5 μl of approximately 14-fold concentrated Syringomycin E-containing fraction dried in well of 384-well plate", "source_text": "(§1) Syringomycin E is not a commercially available antibiotic and was, therefore, purified from the bacterium Pseudomonas syringae pv. syringae according to the method of (Bidwai & Zhang et al., 83 Plant Physiol 39-43 (1987)). Briefly, stationary-phase liquid cultures of P. syringae pv. syringae were extracted with acidified acetone and fractionated over an Amberlite XAD-2 (Sigma) column using a linear gradient of 0.1% trifluoroacetic acid/0.1% trifluoroacetic acid in 2-propanol. Each fraction was assayed for ability to inhibit growth of wild type (PGY8) and sur2 (PGY29) yeast strains. For the assay, 10 ml fractions were collected and 50 μl of each fraction was applied a 96-well plate and dried in a vacuum concentrator. […] of rich medium containing mid-logarithmic PGY8 or PGY29 at a cell density of 10^5 cells/ml were applied to each well. Growth was monitored after 18 hours by determining the absorbance at 600 nm. Syringomycin E-containing fractions were identified as those that inhibited growth of PGY8 but not of PGY29.\n(§2) The ability of the amino-terminal truncated Arabidopsis LCBH to confer Syringomycin E sensitivity on the yeast sur2 mutant was determined as follows. […] 100 μl of yeast strains PGY8 and PGY29 in rich medium, or PGY31 in rich medium supplemented with galactose were added to each well and growth was monitored at 600 nm."}, "[2]": {"system": "yeast strain PGY31 (sur2 mutant expressing the truncated form of C4-LCBH)", "assay": "Syringomycin E sensitivity growth assay, sur2 mutant expressing truncated Arabidopsis LCBH (PGY31)", "type": "cell-based, Saccharomyces cerevisiae", "conditions": "PGY31 in rich medium supplemented with galactose; 5 μl of approximately 14-fold concentrated Syringomycin E-containing fraction dried in well of 384-well plate", "source_text": "as §1, §2"}, "[3]": {"system": "yeast strain PGY29 (sur2)", "assay": "Syringomycin E sensitivity growth assay, sur2 mutant strain PGY29", "type": "cell-based, Saccharomyces cerevisiae", "conditions": "PGY29 in rich medium; 5 μl of approximately 14-fold concentrated Syringomycin E-containing fraction dried in well of 384-well plate", "source_text": "as §1, §2"}, "Wild-type yeast strains": {"system": "Wild-type yeast strains", "conditions": "cited from earlier work"}, "sur2 mutants": {"system": "sur2 mutants", "conditions": "cited from earlier work"}},
  "data": [
    {"substance": "Syringomycin E", "values": [
      {"measurement": "Growth in the presence of Syringomycin E (monitored at 600 nm)", "setting": "[1]", "result": "completely inhibited"},
      {"measurement": "Growth in the presence of Syringomycin E (monitored at 600 nm)", "setting": "[2]", "result": "completely inhibited"},
      {"measurement": "Growth in the presence of Syringomycin E (monitored at 600 nm)", "setting": "[3]", "result": "able to grow"},
      {"measurement": "Sensitivity to syringomycin E", "setting": "Wild-type yeast strains", "result": "sensitive"},
      {"measurement": "Growth in the presence of syringomycin E", "setting": "sur2 mutants", "result": "able to grow"}
    ]}
  ]
}
